According to patent US20130123254A1, “PHARMACEUTICALLY ACCEPTABLE MGLUR5 POSITIVE ALLOSTERIC MODULATORS AND THEIR METHODS OF IDENTIFICATION” (priority 2011, published 2013):

Columns and labels:
[1] = molecular target: T1, human mGlu5a receptor (Homo sapiens, UniProt P41594); test: Shift factor in Ca2+ mobilization assay (human); type: cell-based; settings: shift factor = EC50(glutamate)/EC50(glutamate + test compound)
T1 construct: expressed in transfected cells
Experimental: A monoclonal HEK-293 cell line stably transfected with a cDNA encoding for the human mGlu5a receptor was generated; for the work with mGlu5 Positive Allosteric Modulators (PAMs), a cell line with low receptor expression levels and low constitutive receptor activity was selected to allow the differentiation of agonistic versus PAM activity. Cells were cultured according to standard protocols (Freshney, 2000) in Dulbecco's Modified Eagle Medium with high glucose supplemented with 1 mM glutamine, 10% (vol/vol) heat-inactivated bovine calf serum, Penicillin/Streptomycin, 50 μg/ml hygromycin and 15 μg/ml blasticidin (all cell culture reagents and antibiotics from Invitrogen, Basel, Switzerland).
About 24 hrs before an experiment, 5×10^4 cells/well were seeded in poly-D-lysine coated, black/clear-bottomed 96-well plates. The cells were loaded with 2.5 μM Fluo-4AM in loading buffer (1×HBSS, 20 mM HEPES) for 1 hr at 37° C. and washed five times with loading buffer. The cells were transferred into a Functional Drug Screening System 7000 (Hamamatsu, Paris, France), and 11 half logarithmic serial dilutions of test compound at 37° C. were added and the cells were incubated for 10-30 min. with on-line recording of fluorescence. Following this pre-incubation step, the agonist L-glutamate was added to the cells at a concentration corresponding to EC20 (typically around 80 μM) with on-line recording of fluorescence; in order to account for day-to-day variations in the responsiveness of cells, the EC20 of glutamate was determined immediately ahead of each experiment by recording of a full dose-response curve of glutamate.
(§1) The shift factor is calculated for a specific concentration of the test compound according to the equation: Shift factor=EC50(glutamate)/EC50(glutamate+×uM test compound).
(§2) On the same 96-well plate a serial dilution of glutamate is added to a) cells previously incubated for 10-30 min. with a fixed concentration of an mGlu5 PAM test compound and b) cells not incubated with mGlu5 PAM test compound. The peak fluorescence signals obtained from cells with or without pre-incubation with mGlu5 PAM test compound is plotted as illustrated, and the two EC50 values are derived from the plot. The shift factor is specific for the concentration of the test compound used and calculated as follows: Shift factor=ECM50(glutamate)/EC50(glutamate+×μM test compound).

[2] = Body temperature test; type: in vivo; settings: rat, body temperature at 2 h, read-out: BT test MED (rat)
Experimental: Principle: Evaluation of the effect of a compound on core body temperature at a 2-h interval in the rat.
The temperature decrease in rats upon administration of mGluR5 negative allosteric modulators (antagonists) is well documented Warty & al.; Psychopharmacology (2005) 179: 207-217 (DOI 10.1007/s00213-005-2143-4)).
Male Sprague Dawley Rats (OFA-SD, Charles River, ˜250 g) are weighed and isolated for at least 30 min before compound injection in type II Makrolon cages. Before injection of the mGlu5 PAM compound, rectal body temperature is measured with a thermometer with a special rat probe for ˜20 s. The probe is dipped in glycerin before each use. Immediately after compound administration, rats are placed back in the type 2 cage. After 2 hours, the body temperature of each rat is measured again. The difference in absolute body temperature as well as the temperature difference delta T2-T0 between vehicle and compound injected rats is analysed.

[3] = molecular target: T2, mGlu5 receptor (Rattus norvegicus, UniProt P31424); test: Shift factor in Ca2+ mobilization assay (rat); type: cell-based
T2 construct: expressed in transfected cells
T2 sequence (P31424 21-1203): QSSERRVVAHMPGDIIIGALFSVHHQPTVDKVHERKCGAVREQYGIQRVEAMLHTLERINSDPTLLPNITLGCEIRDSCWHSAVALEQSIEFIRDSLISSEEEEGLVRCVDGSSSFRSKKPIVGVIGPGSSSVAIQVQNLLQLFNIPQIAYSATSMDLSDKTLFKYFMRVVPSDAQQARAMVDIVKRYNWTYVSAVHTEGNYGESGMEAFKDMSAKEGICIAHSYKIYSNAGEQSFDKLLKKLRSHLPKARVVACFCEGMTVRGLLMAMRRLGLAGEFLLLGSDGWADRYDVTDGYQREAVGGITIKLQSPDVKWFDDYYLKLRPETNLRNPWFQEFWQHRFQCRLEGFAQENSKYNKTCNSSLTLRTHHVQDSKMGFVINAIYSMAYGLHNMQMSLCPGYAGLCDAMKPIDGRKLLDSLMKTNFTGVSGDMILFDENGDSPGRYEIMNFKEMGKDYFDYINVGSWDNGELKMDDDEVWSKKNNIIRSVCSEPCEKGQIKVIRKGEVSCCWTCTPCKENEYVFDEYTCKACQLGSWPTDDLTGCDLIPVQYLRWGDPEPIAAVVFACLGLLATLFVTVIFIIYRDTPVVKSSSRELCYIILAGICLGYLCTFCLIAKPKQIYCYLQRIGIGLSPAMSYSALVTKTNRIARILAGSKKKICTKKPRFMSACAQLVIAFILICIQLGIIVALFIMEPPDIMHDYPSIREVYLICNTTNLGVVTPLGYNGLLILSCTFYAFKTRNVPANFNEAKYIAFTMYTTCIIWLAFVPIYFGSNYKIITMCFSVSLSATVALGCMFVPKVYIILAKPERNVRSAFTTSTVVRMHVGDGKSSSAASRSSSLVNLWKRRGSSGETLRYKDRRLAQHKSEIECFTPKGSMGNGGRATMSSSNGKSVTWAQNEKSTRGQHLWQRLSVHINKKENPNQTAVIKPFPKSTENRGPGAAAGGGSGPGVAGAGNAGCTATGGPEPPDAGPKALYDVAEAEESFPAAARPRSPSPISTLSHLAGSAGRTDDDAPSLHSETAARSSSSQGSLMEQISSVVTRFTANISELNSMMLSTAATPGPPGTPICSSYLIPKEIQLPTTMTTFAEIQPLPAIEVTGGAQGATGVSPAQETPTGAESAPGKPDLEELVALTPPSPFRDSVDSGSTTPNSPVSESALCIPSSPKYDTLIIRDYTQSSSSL
Experimental: as §1, §2

[4] = molecular target: T1, human mGlu5a receptor; test: Intracellular Ca2+ mobilization assay, PAM EC50 and efficacy at EC20 of L-glutamate; type: cell-based; settings: maximal response relative to saturating L-glutamate, FIGS. 4 and 5
[5] = HTD/LTD dose, tolerability in rat; settings: for HTD/LTD Dose (rat) (observation): observation at the HTD/LTD dose

T1 sequence (P41594 21-1180 isoform P41594-2 limits assumed): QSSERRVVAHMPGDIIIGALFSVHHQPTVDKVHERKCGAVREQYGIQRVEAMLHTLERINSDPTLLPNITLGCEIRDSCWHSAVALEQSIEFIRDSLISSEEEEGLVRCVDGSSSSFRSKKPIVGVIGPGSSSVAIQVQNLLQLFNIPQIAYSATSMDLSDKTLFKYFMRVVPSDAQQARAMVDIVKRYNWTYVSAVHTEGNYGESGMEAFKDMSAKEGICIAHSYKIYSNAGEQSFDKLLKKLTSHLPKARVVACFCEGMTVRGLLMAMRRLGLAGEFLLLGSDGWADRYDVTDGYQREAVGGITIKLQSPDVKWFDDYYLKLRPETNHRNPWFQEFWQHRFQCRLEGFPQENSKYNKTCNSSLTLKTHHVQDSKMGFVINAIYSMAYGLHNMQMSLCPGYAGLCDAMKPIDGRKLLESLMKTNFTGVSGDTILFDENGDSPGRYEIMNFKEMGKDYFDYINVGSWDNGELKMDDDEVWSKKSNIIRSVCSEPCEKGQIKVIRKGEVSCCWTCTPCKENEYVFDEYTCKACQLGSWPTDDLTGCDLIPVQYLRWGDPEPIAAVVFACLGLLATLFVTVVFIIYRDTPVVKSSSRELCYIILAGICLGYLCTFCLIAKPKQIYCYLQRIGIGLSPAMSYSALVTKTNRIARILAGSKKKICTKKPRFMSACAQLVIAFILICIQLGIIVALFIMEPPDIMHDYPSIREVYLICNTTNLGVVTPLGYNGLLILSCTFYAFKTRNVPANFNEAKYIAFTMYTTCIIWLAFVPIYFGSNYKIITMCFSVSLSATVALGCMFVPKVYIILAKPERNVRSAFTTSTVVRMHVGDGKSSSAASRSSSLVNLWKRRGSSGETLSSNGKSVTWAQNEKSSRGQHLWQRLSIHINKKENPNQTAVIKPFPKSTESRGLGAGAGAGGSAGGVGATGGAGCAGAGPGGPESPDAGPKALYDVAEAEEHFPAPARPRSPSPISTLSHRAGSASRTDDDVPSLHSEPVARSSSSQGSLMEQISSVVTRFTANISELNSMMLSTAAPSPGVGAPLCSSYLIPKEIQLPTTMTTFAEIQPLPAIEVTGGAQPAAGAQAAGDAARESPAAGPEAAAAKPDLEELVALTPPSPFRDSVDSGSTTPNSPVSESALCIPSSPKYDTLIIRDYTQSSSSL

CC1(C)CC(=O)N(c2ccc(C#Cc3cccc(F)c3)cn2)N1 [Example 1]
Shift (hum, 10 uM) [1]: 1.75
minimal effective dose [2]: 0.3 mg/kg
Shift (rat, 10 uM) [3]: 1.44
efficacy [4]: low efficacy
HTD/LTD Dose (rat) [5]: 100 mg/kg
HTD/LTD Dose (rat) (observation) [5]: well tolerated

CN1C(=O)N(c2ccc(C#Cc3ccccc3)cn2)[C@@H]2CCC[C@@H]21 [Example 2]
Shift (hum, 10 uM) [1]: 1.02
minimal effective dose [2]: 0.1 mg/kg
Shift (rat, 10 uM) [3]: 0.88
HTD/LTD Dose (rat) [5]: 100 mg/kg
HTD/LTD Dose (rat) (observation) [5]: well tolerated

CN1C(=O)N(c2ccc(C#Cc3cccc(F)c3)cn2)[C@@H]2CCC[C@@H]21 [Example 3]
Shift (hum, 10 uM) [1]: 0.87
minimal effective dose [2]: 0.1 mg/kg
Shift (rat, 10 uM) [3]: 0.82
HTD/LTD Dose (rat) [5]: 100 mg/kg
HTD/LTD Dose (rat) (observation) [5]: well tolerated

CN1C(=O)N(c2ccc(C#Cc3ccccc3)nn2)[C@@H]2CCC[C@@H]21 [Example 4]
Shift (hum, 10 uM) [1]: 2.46
minimal effective dose [2]: 0.1 mg/kg
Shift (rat, 10 uM) [3]: 1.70
HTD/LTD Dose (rat) [5]: 100 mg/kg
HTD/LTD Dose (rat) (observation) [5]: well tolerated

CN1C(C)(C)CN(c2ccc(C#Cc3ccccc3)cn2)S1(=O)=O [Example 5]
Shift (hum, 10 uM) [1]: 2.02
minimal effective dose [2]: 0.3 mg/kg
Shift (rat, 10 uM) [3]: 1.66
HTD/LTD Dose (rat) [5]: 100 mg/kg
HTD/LTD Dose (rat) (observation) [5]: well tolerated

CC1(C)CN(c2ccc(C#Cc3cccc(F)c3)cn2)C(=O)O1 [Example 6]
Shift (hum, 10 uM) [1]: 1.40
minimal effective dose [2]: 0.3 mg/kg
Shift (rat, 10 uM) [3]: 1.90
HTD/LTD Dose (rat) [5]: 100 mg/kg
HTD/LTD Dose (rat) (observation) [5]: well tolerated

CN1C(=O)N(c2ncc(C#Cc3ccc(F)cc3)cn2)CC1(C)C [Example 7]
Shift (hum, 10 uM) [1]: 2.44
minimal effective dose [2]: 0.3 mg/kg
Shift (rat, 10 uM) [3]: 1.80
HTD/LTD Dose (rat) [5]: 100 mg/kg
HTD/LTD Dose (rat) (observation) [5]: well tolerated

CN1C(=O)N(c2ccc(C#Cc3cncc(Cl)c3)cn2)CC1(C)C [Example 8]
Shift (hum, 10 uM) [1]: 3.60
minimal effective dose [2]: 1 mg/kg
Shift (rat, 10 uM) [3]: 2.28
HTD/LTD Dose (rat) [5]: 100 mg/kg
HTD/LTD Dose (rat) (observation) [5]: well tolerated

CC1(C)CN(c2ccc(C#Cc3ccccc3)cn2)C(=O)O1 [Example 9]
Shift (hum, 10 uM) [1]: 1.70
minimal effective dose [2]: 1 mg/kg
Shift (rat, 10 uM) [3]: 2.63
HTD/LTD Dose (rat) [5]: 30 mg/kg
HTD/LTD Dose (rat) (observation) [5]: well tolerated

CO[C@@H]1C(=O)N(c2ncc(C#Cc3cccc(F)c3)cn2)CC1(C)C [Example 10]
Shift (hum, 10 uM) [1]: 3.46
minimal effective dose [2]: 0.3 mg/kg
Shift (rat, 10 uM) [3]: 2.62
HTD/LTD Dose (rat) [5]: 100 mg/kg
HTD/LTD Dose (rat) (observation) [5]: well tolerated

CN(C(=O)c1ncc(C#Cc2cccc(F)c2)cn1)C(C)(C)C [Example 11]
Shift (hum, 10 uM) [1]: 2.06
minimal effective dose [2]: 0.1 mg/kg
Shift (rat, 10 uM) [3]: 1.86
HTD/LTD Dose (rat) [5]: 100 mg/kg
HTD/LTD Dose (rat) (observation) [5]: well tolerated

CN(C(=O)c1ccc(C#Cc2cc(F)ccc2F)cn1)C(C)(C)C [Example 12]
Shift (hum, 10 uM) [1]: 1.86
minimal effective dose [2]: 0.1 mg/kg
Shift (rat, 10 uM) [3]: 1.62
HTD/LTD Dose (rat) [5]: 100 mg/kg
HTD/LTD Dose (rat) (observation) [5]: well tolerated

CC1(C)CCN(c2ccc(C#Cc3cccc(Cl)c3)cn2)C(=O)C1 [Example 13]
Shift (hum, 10 uM) [1]: 4.74
minimal effective dose [2]: 0.1 mg/kg
Shift (rat, 10 uM) [3]: 3.92
HTD/LTD Dose (rat) [5]: 100 mg/kg
HTD/LTD Dose (rat) (observation) [5]: seizures

CN1C(=O)N(c2ccc(C#Cc3ccccc3)cn2)CC1(C)C [Example 14]
minimal effective dose [2]: 0.3 mg/kg
HTD/LTD Dose (rat) [5]: 3 mg/kg

CC1(C)CCN(c2ccc(C#Cc3ccccc3)cn2)C(=O)O1 [Example 15]
Shift (hum, 10 uM) [1]: 9.73
minimal effective dose [2]: 0.1 mg/kg
Shift (rat, 10 uM) [3]: 7.67
efficacy [4]: high efficacy
HTD/LTD Dose (rat) [5]: 3 mg/kg
HTD/LTD Dose (rat) (observation) [5]: seizures

C(#Cc1cnc2nc(N3CCOCC3)nn2c1)c1ccccc1 [Example 16]
Shift (hum, 10 uM) [1]: 12.13
minimal effective dose [2]: 3 mg/kg
Shift (rat, 10 uM) [3]: 11.31
HTD/LTD Dose (rat) [5]: 10 mg/kg
HTD/LTD Dose (rat) (observation) [5]: seizures

CC1(C)CCN(c2ccc(C#Cc3ccccc3)cn2)C(=O)C1 [Example 17]
Shift (hum, 10 uM) [1]: 15.95
minimal effective dose [2]: 0.1 mg/kg
Shift (rat, 10 uM) [3]: 12.93
HTD/LTD Dose (rat) [5]: 100 mg/kg
HTD/LTD Dose (rat) (observation) [5]: seizures
